In patent US11345666B2, “Phenyl and pyridinyl substituted imidazoles as modulators of RORγT” (Janssen Pharmaceutica NV, priority 2018, dated 2022) one finds IC50 and inhibition data, which are given here for eight molecules.

The assay has as its target full-length human RORγt (Homo sapiens (Human), UniProt P51449). Nature of the assay: RORγt (full-length human) reporter assay, conditions A or B. The format is cell-based. As to conditions: for pIC50: HEK293T cells, read-out: RORγt (FL) Reporter Assay A or B, IC50; for inhibition at 6 µM: read-out: RORγt (FL) Reporter Assay A or B, % inhibition @ 6 μM, 6 μM compound concentration. An excerpt: RORγt (Full-Length Human) Reporter Assay:
Cells used in this assay were transiently co-transfected with three different plasmids, one expressing the GAL4-DNA binding domain (DBD)-RORγt fusion protein under control of a CMV promoter (NH2-Gal4-DBD:RORC—COOH in pCMV-BD, Stratagene #211342), and two reporter plasmids—the firefly luciferase reporter under control of a GAL4 promoter (pFR-Luc 2×GAL4) and Renilla luciferase reporter under control of CMV promoter (pRL-CMV, Promega #E2261). […] HEK293T cells were plated at 35,000 per well in 96-well plate in medium of DMEM with 10% FBS. After 18-22 hours incubation, the transfection was carried out by using a PEI solution with 170.5 ng total DNA/well (50 ng pCMV-BD-ROR plus 20 ng of pFR-Luc reporter and 0.5 ng of pRL-CMV reporter plus 100 ng Carrier DNA (Clontech #630440) for each well). 4-6 hours after transfection, cells were treated with compounds for overnight in the medium with final concentration of FBS 1.3% and DMSO 0.1%. After overnight (16 to 20 hours) incubation, media were removed and cells were lysed with […] Glo Lysis Buffer (Promega) for 10-15 minutes followed by 10 minute incubation with 50 μL Dual Glo reagent (Promega) at room temperature. Firefly luciferase luminescence was measured using a BMG Pherastar plate reader. To each well, 50 μL Stop and Glo reagent was added and incubated for 10 minutes at room temperature. Renilla luminescence was measured using a BMG Pherastar plate reader. To calculate the effect of compounds on RORγt activity, firefly values were normalized against values of DMSO only and values of reference compound at saturating concentration, then further normalized against Renilla signals. IC50s were generated by plotting final Renilla normalized data against compound concentration and percent inhibition was calculated against DMSO control.
Cells used in this assay were transiently co-transfected with three different plasmids, one expressing the GAL4-DNA binding domain (DBD)-RORγt fusion protein under control of a CMV promoter (NH2-Gal4-DBD:RORC—COOH in pCMV-BD, Stratagene #211342), and two reporter plasmids—the firefly luciferase reporter under control of a GAL4 promoter (pFR-Luc 2×GAL4) and Renilla luciferase reporter under control of CMV promoter (pRL-CMV, Promega #E2261). […] HEK293T cells were plated at 8750 cells per well in 384-well plate in medium of DMEM with 10% FBS. After 18-22 hours incubation, the transfection was carried out by using a PEI solution with 42.6 ng total DNA/well (12.5 ng pCMV-BD-ROR plus 5 ng of pFR-Luc reporter and 0.125 ng of pRL-CMV reporter plus 25 ng Carrier DNA (Clontech #630440) for each well). 4-6 hours after transfection, cells were treated with compounds for overnight in the medium with final concentration of FBS 1.3% and DMSO 0.1%. After overnight (16 to 20 hours) incubation, media were removed and cells were lysed with 20 μL Glo Lysis Buffer (Promega) for 10-15 minutes followed by 10 minute incubation with 20 μL Dual Glo reagent (Promega) at room temperature. Firefly luciferase luminescence was measured using a BMG Pherastar plate reader. To each well, 20 μL Stop and Glo reagent was added and incubated for 10 minutes at room temperature. Renilla luminescence was measured using a BMG Pherastar plate reader. To calculate the effect of compounds on RORγt activity, firefly values were normalized against values of DMSO only and values of reference compound at saturating concentration, then further normalized against Renilla signals. IC50s were generated by plotting final Renilla normalized data against compound concentration and percent inhibition was calculated against DMSO control.
(In general: A reporter such as luciferase makes a cellular process visible.)

The structures appear in SMILES notation. pIC50: −log10 of the molar value.

full-length human RORγt, sequence (P51449 other isoform, or with tags, fused parts or gaps): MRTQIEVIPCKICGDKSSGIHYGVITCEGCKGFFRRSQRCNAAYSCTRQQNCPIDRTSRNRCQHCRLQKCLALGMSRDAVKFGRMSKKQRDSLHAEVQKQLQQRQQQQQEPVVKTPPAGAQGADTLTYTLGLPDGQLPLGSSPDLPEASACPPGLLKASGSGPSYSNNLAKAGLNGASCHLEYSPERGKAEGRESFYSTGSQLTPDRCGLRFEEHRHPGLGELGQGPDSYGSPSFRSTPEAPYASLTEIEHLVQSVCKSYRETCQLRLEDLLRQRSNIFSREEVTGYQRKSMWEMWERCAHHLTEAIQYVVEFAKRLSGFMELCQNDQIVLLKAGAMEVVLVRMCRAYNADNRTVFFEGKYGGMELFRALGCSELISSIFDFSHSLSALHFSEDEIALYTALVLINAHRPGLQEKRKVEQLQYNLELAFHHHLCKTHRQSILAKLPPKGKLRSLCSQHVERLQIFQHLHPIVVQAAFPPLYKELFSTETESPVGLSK

`CCc1nc(C(=O)NC[C@]2(O)CC[C@@H](S(C)(=O)=O)CC2)c(Cl)n1-c1ncc(CCCC(F)(F)F)cc1OC(F)F` [Example 47, 5-Chloro-1-(3-(difluoromethoxy)-5-(4,4,4-trifluorobutyl)pyridin-2-yl)-2-ethyl-N-(((1s,4s)-1-hydroxy-4-(methylsulfonyl)cyclohexyl)methyl)-1H-imidazole-4-carboxamide]: the pIC50 – broadly, the negative decadic logarithm of the IC50, by convention in mol/L – is 6.47 and the inhibition at 6 µM stood at 98%.
`CCc1nc(C(=O)NC[C@H]2CC[C@H](S(C)(=O)=O)CC2)c(C)n1-c1ccc(CC(C)C(F)(F)F)cc1OC` (single isomer, unassigned) [Example 8]: the negative-log IC50 (pIC50) was 6.80. In addition, under “read-out: RORγt (FL) Reporter Assay A or B, % inhibition, 0.67 μM compound concentration (****)”, the inhibition at 0.67 µM was found to be 66%.
Turning to `CCc1nc(C(=O)NC[C@]2(O)CC[C@@H](S(C)(=O)=O)CC2)c(Cl)n1-c1ncc(CC(C)(C)CC(F)(F)F)cc1OC(F)F` [Example 107, 5-Chloro-1-(3-(difluoromethoxy)-5-(4,4,4-trifluoro-2,2-dimethylbutyl)pyridin-2-yl)-2-ethyl-N-(((1s,4s)-1-hydroxy-4-(methylsulfonyl)cyclohexyl)methyl)-1H-imidazole-4-carboxamide], the inhibition at 3 µM (3 μM compound concentration (*), read-out: RORγt (FL) Reporter Assay A or B, % inhibition) was 85%.
Turning to `CCc1nc(C(=O)NC[C@]2(O)CC[C@@H](S(C)(=O)=O)CC2)c(Cl)n1-c1ccc(CC(C(F)(F)F)C(F)(F)F)c(F)c1` [Example 105, 5-Chloro-2-ethyl-1-(3-fluoro-4-(3,3,3-trifluoro-2-(trifluoromethyl)propyl)phenyl)-N-(((1s,4s)-1-hydroxy-4-(methylsulfonyl)cyclohexyl)methyl)-1H-imidazole-4-carboxamide], the negative-log IC50 (pIC50) was 7.28. Further, the inhibition at 0.22 µM (0.22 μM compound concentration (******), read-out: RORγt (FL) Reporter Assay A or B, % inhibition) was 80%.
Regarding `CCc1nc(C(=O)NC[C@]2(O)CC[C@@H](S(C)(=O)=O)CC2)c(C)n1-c1ncc(CC(C)(C)C(F)(F)F)cc1OC(F)F` [Example 50, 1-(3-(Difluoromethoxy)-5-(3,3,3-trifluoro-2,2-dimethylpropyl)pyridin-2-yl)-2-ethyl-N-(((1s,4s)-1-hydroxy-4-(methylsulfonyl)cyclohexyl)methyl)-5-methyl-1H-imidazole-4-carboxamide], the negative-log IC50 (pIC50) is 6.92 and the inhibition at 6 µM amounted to 90%.
For `CCc1nc(C(=O)NC[C@]2(O)CC[C@@H](S(C)(=O)=O)CC2)c(C)n1-c1ncc(CCCC(F)(F)F)cc1OC(F)F` [Example 52, 1-(3-(Difluoromethoxy)-5-(4,4,4-trifluorobutyl)pyridin-2-yl)-2-ethyl-N-(((1s,4s)-1-hydroxy-4-(methylsulfonyl)cyclohexyl)methyl)-5-methyl-1H-imidazole-4-carboxamide], the inhibition at 6 µM stood at 78%.
Regarding `CCc1nc(C(=O)NC[C@H]2CC[C@H](S(C)(=O)=O)CC2)c(Cl)n1-c1ncc(CCCC(F)(F)F)cc1OC(F)F` [Example 48, 5-Chloro-1-(3-(difluoromethoxy)-5-(4,4,4-trifluorobutyl)pyridin-2-yl)-2-ethyl-N-(((1r,4r)-4-(methylsulfonyl)cyclohexyl)methyl)-1H-imidazole-4-carboxamide], the pIC50 is 7.30 and the inhibition at 6 µM came out at 104%.
The corresponding values for `CCc1nc(C(=O)NC[C@]2(O)CC[C@@H](S(C)(=O)=O)CC2)c(C#N)n1-c1cnc(CCC(F)(F)F)cc1OC` [Example 118, 5-Cyano-2-ethyl-N-(((1s,4s)-1-hydroxy-4-(methylsulfonyl)cyclohexyl)methyl)-1-(4-methoxy-6-(3,3,3-trifluoropropyl)pyridin-3-yl)-1H-imidazole-4-carboxamide] are 5.62 and 54%.
